From ChEMBL document CHEMBL3044786, “Synthesis and nematocidal activity of ascaridole derivatives against Meloidogyne incognita and Aphelenchoides besseyi” (J Pestic Sci, 2007)
In brackets after ≈: the same amount, converted by molar mass.

Experiments:
Meloidogyne incognita [1] = test: Nematocidal activity against Meloidogyne incognita (root-knot nematode) assessed as mortality after 24 hr; format: functional
Meloidogyne incognita [2] = test: Nematocidal activity against Meloidogyne incognita (root-knot nematode) assessed as mortality at 100 ug/ml after 24 hr; format: functional
Aphelenchoides besseyi [3] = test: Nematocidal activity against Aphelenchoides besseyi assessed as mortality after 24 hr; format: functional
Aphelenchoides besseyi [4] = test: Nematocidal activity against Aphelenchoides besseyi assessed as mortality at 200 ug/ml after 24 hr; format: functional
[5] = Toxicity in Rattus norvegicus (rat); format: organism-based; conditions: in vivo, read-out: LC50 (the source's name)

| SMILES | LC50 (Meloidogyne incognita [1]) [µg/mL] | mortality at 100 µg/mL (Meloidogyne incognita [2]) [%] | LC50 (Aphelenchoides besseyi [3]) [µg/mL] | mortality at 200 µg/mL (Aphelenchoides besseyi [4]) [%] | LD50 [5] [mg/kg] |
| --- | --- | --- | --- | --- | --- |
| CC1=C[C@H]2OO[C@@H]1C[C@@H]2C(C)C | 25 (≈ 149 µM) | 100 | 69 (≈ 410 µM) | – | – |
| CC1=C[C@@H]2OO[C@H]1C[C@@H]2C(C)C | 51 (≈ 303 µM) | 100 | 110 (≈ 654 µM) | – | – |
| C=C(C)[C@H]1C[C@H]2OO[C@@H]1C=C2C | 12 (≈ 72.2 µM) | 100 | 21 (≈ 126 µM) | – | – |
| C=C(C)[C@H]1C[C@@H]2OO[C@H]1C=C2C | 23 (≈ 138 µM) | 100 | 50 (≈ 301 µM) | – | – |
| C=C(C)[C@H]1C[C@H]2OO[C@@H]1C(OC(C)=O)=C2C | 50 (≈ 223 µM) | 100 | 302 (≈ 1350 µM) | < 50 | – |
| C=C(C)[C@H]1C[C@@H]2OO[C@H]1C(OC(C)=O)=C2C | 51 (≈ 227 µM) | 100 | 306 (≈ 1360 µM) | – | – |
| CC(C)C12C=CC(C(=O)O)(CC1)OO2 (stereo not drawn) | 2 (≈ 10.1 µM) | 100 | 4 (≈ 20.2 µM) | 100 | – |
| CC(C)C12C=CC(CO)(CC1)OO2 (stereo not drawn) | 55 (≈ 299 µM) | 100 | 402 (≈ 2180 µM) | < 50 | – |
| COC(=O)C12C=CC(C(C)C)(CC1)OO2 (stereo not drawn) | 2 (≈ 9.42 µM) | 100 | 2 (≈ 9.42 µM) | 100 | – |
| CC(C)C12C=CC(C)(CC1)OO2 (stereo not drawn) [ASCARIDOLE] | 52 (≈ 309 µM) | 100 | 365 (≈ 2170 µM) | < 50 | – |
| CNC(=O)O/N=C(\SC)C(=O)N(C)C [OXAMYL] | 0.07 (≈ 0.319 µM) | – | 0.1 (≈ 0.456 µM) | – | 3.1 |
